Starred links: 1 amine or outer side, 2 acyl side, 3 side chain; linkers in the order of their positions; H or OH if unused. Positions of bridges follow the written chain, without caps; N, C: chain ends. Non-standard residues stand in square brackets, D forms with d. Residues, ends and D or L forms follow the SMILES beside them. *: point of attachment. hNle(7,7-F2) = N[C@@H](CCCCC(F)F)C(=O)O; NMeF = CN[C@@H](Cc1ccccc1)C(=O)O; NMeGABA = CN(CCCC(=O)[*:2])[*:1]; NMeI = CC[C@H](C)[C@H](NC)C(=O)O; NMeL = CN[C@@H](CC(C)C)C(=O)O; NMeV = CN[C@H](C(=O)O)C(C)C; NMeA = CN[C@@H](C)C(=O)O; Piperidide = C1CCN(*)CC1; Isopentyl = CC(C)CC*; NPrGly = CCCNCC(=O)O; X11 = FC(F)C(F)(F)C*; X2 = Fc1cncc(C*)c1; Sar = CNCC(=O)O; tBu = CC(C)(C)*; Propyl = CCC*

This data set can be described thus: Caco-2 membrane permeability, improved method as used in the following Examples (96-well, 20 to 24 h preincubation). Format: in vitro ADME. Particulars: human, Caco-2, Caco-2. The method, boiled down: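 Caco-2 monolayers were grown three weeks and preincubated 20–24 h at 37 °C with compound in DMEM+FaSSIF (1% DMSO) apically. The assay then used compound in FaSSIF/HBSS (1% DMSO, pH 6.0) apically and HBSS with 4% BSA (pH 7.4) basally. Basal samples were taken at 180 min for LC/MS, and Papp (cm/sec) was calculated.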
Consider `CCCOC[C@@H]1NC(=O)[C@H](Cc2ccccc2)N(C)C(=O)[C@H](CC(C)C)N(C)C(=O)[C@H](CC(C)C)NC(=O)[C@H](C)N(C)C(=O)C[C@@H](C(=O)N2CCCCC2)NC(=O)[C@H](CC(C)C)N(C)C(=O)CN(C)C(=O)[C@H]([C@@H](C)O)NC(=O)[C@H](CC(C)C)N(C)C(=O)[C@H](Cc2ccccc2)N(C)C1=O` [pd329] ([NMeA]L[NMeL][NMeF]S(Propyl)[NMeF][NMeL]T[Sar][NMeL]D-Piperidide; lactam N-11), for which the Papp A→B at 180 min came to 4.2 ×10⁻⁶ cm/s.

Turning to `CCCOC[C@@H]1NC(=O)[C@H](CC(C)C)N(C)C(=O)[C@H](Cc2ccccc2)N(C)C(=O)CN(C)C(=O)[C@H]([C@@H](C)O)NC(=O)[C@H](CC(C)C)N(C)C(=O)[C@H]([C@@H](C)CC)NC(=O)[C@H](Cc2ccccc2)N(C)C(=O)CN(C)C(=O)C[C@@H](C(=O)N2CCCCC2)NC(=O)[C@H](CC(C)C)N(C)C1=O` [pd330] ([Sar][NMeF]I[NMeL]T[Sar][NMeF][NMeL]S(Propyl)[NMeL]D-Piperidide; lactam N-11), the Papp A→B at 180 min came to 1.8 ×10⁻⁶ cm/s.

`CC(C)C[C@H]1C(=O)N[C@@H](COC(C)(C)C)C(=O)N(C)[C@@H](Cc2ccccc2)C(=O)N(C)[C@@H](C(C)C)C(=O)N[C@H](C(=O)N2CCCCC2)CC(=O)N[C@H](C(C)C)C(=O)N(C)[C@@H](Cc2ccccc2)C(=O)N[C@@H](CCCCC(F)F)C(=O)N(C)[C@@H](CC(C)C)C(=O)N[C@@H]([C@@H](C)O)C(=O)N(C)CC(=O)N1C` [pd331] ([dV][NMeF][hNle(7,7-F2)][NMeL]T[Sar][NMeL]S(tBu)[NMeF][NMeV]D-Piperidide; lactam N-11): the Papp A→B at 180 min was found to be 2.1 ×10⁻⁶ cm/s.

The compound `CC(C)C[C@@H]1NC(=O)[C@H](Cc2ccccc2)N(C)C(=O)[C@@H](C(C)C)NC(=O)C[C@@H](C(=O)N2CCCCC2)NC(=O)[C@H](C(C)C)N(C)C(=O)[C@H](Cc2ccccc2)N(C)C(=O)[C@H](CCCCC(F)F)NC(=O)[C@H](CC(C)C)N(C)C(=O)CN(C)C(=O)[C@H]([C@@H](C)O)NC(=O)[C@H](CC(C)C)N(C)C1=O` [pd332] ([dV][NMeF]L[NMeL]T[Sar][NMeL][hNle(7,7-F2)][NMeF][NMeV]D-Piperidide; lactam N-11) yielded an apparent permeability from apical to basolateral (Papp A→B) at 180 min of 1.5 ×10⁻⁶ cm/s.

With `CC[C@H](C)[C@@H]1NC(=O)[C@H](CC(C)C)N(C)C(=O)CCCN(C)C(=O)C[C@@H](C(=O)N2CCCCC2)NC(=O)[C@H](CC(C)C)N(C)C(=O)[C@H](C)N(C)C(=O)[C@H]([C@@H](C)O)NC(=O)[C@H](CC(C)C)N(C)C(=O)[C@H](CCCCC(F)F)NC(=O)[C@H](Cc2ccccc2)N(C)C(=O)[C@H](Cc2ccccc2)N(C)C1=O` [pd333] ([NMeGABA][NMeL]I[NMeF][NMeF][hNle(7,7-F2)][NMeL]T[NMeA][NMeL]D-Piperidide; lactam N-11), the Papp A→B at 180 min is 1.3 ×10⁻⁶ cm/s. This Papp A→B at 180 min and that of the compound before are within 1.5-fold of each other.

In the case of `CC[C@H](C)[C@H]1C(=O)N[C@@H]([C@@H](C)O)C(=O)N(C)CC(=O)N(C)[C@@H](CC(C)C)C(=O)N[C@H](C(=O)N2CCCCC2)CC(=O)N(C)[C@@H](C)C(=O)N[C@@H](CCCCC(F)F)C(=O)N(C)[C@@H](CC(C)C)C(=O)N(C)[C@@H](Cc2ccccc2)C(=O)N[C@@H](C(C)C)C(=O)N(C)[C@@H](Cc2ccccc2)C(=O)N1C` [pd334] ([NMeA][hNle(7,7-F2)][NMeL][NMeF]V[NMeF][NMeI]T[Sar][NMeL]D-Piperidide; lactam N-11), the Papp A→B at 180 min turned out to be 2.4 ×10⁻⁶ cm/s.

As to `CC[C@H](C)[C@H]1C(=O)N[C@@H]([C@@H](C)O)C(=O)N(C)CC(=O)N(C)[C@@H](CC(C)C)C(=O)N[C@H](C(=O)N2CCCCC2)CC(=O)N(C)[C@@H](C)C(=O)N[C@@H](CC(C)C)C(=O)N(C)[C@@H](CC(C)C)C(=O)N(C)[C@@H](Cc2ccccc2)C(=O)N[C@@H](CCCCC(F)F)C(=O)N(C)[C@@H](Cc2ccccc2)C(=O)N1C` [pd335] ([NMeA]L[NMeL][NMeF][hNle(7,7-F2)][NMeF][NMeI]T[Sar][NMeL]D-Piperidide; lactam N-11), the Papp A→B at 180 min came to 2 ×10⁻⁶ cm/s.

Regarding `CCCN1CC(=O)N(C)[C@@H](Cc2ccccc2)C(=O)N[C@@H](CCCCC(F)F)C(=O)N(C)[C@@H](CC(C)C)C(=O)N[C@@H]([C@@H](C)O)C(=O)N(C)CC(=O)N(C)[C@@H](Cc2ccccc2)C(=O)N(C)[C@@H](CC(C)C)C(=O)N[C@@H](COC(C)(C)C)C(=O)N(C)[C@@H](C(C)C)C(=O)N[C@H](C(=O)N2CCCCC2)CC1=O` [pd336] ([NPrGly][NMeF][hNle(7,7-F2)][NMeL]T[Sar][NMeF][NMeL]S(tBu)[NMeV]D-Piperidide; lactam N-11), the Papp A→B at 180 min came to 2.5 ×10⁻⁶ cm/s.

Turning to `CC(C)CCOC[C@@H]1NC(=O)[C@H](CC(C)C)N(C)C(=O)[C@H](Cc2ccccc2)N(C)C(=O)CN(C)C(=O)[C@H]([C@@H](C)O)NC(=O)[C@H](CC(C)C)N(C)C(=O)[C@H](CCCCC(F)F)NC(=O)[C@H](Cc2ccccc2)N(C)C(=O)CN(C)C(=O)C[C@@H](C(=O)N2CCCCC2)NC(=O)[C@H](CC(C)C)N(C)C1=O` [pd338] ([Sar][NMeF][hNle(7,7-F2)][NMeL]T[Sar][NMeF][NMeL]S(Isopentyl)[NMeL]D-Piperidide; lactam N-11), the Papp A→B at 180 min came out at 1.8 ×10⁻⁶ cm/s.

As for `CC(C)C[C@H]1C(=O)N[C@@H](COC(C)(C)C)C(=O)N(C)[C@@H](Cc2ccccc2)C(=O)N(C)[C@@H](C(C)C)C(=O)N[C@H](C(=O)N2CCCCC2)CC(=O)N[C@H](C(C)C)C(=O)N(C)[C@@H](CC(C)C)C(=O)N[C@@H](COc2ccccc2Cl)C(=O)N(C)[C@@H](C)C(=O)N[C@@H]([C@@H](C)O)C(=O)N(C)CC(=O)N1C` [pd339], the apical-to-basolateral permeability (Papp A→B) at 180 min turned out to be 2.6 ×10⁻⁶ cm/s.

Turning to `CC(C)C[C@H]1C(=O)N[C@@H](COC(C)(C)C)C(=O)N(C)[C@@H](C)C(=O)N(C)[C@@H](CC(C)C)C(=O)N[C@H](C(=O)N2CCCCC2)CC(=O)N[C@H](C)C(=O)N(C)[C@@H](Cc2ccccc2)C(=O)N[C@@H](COc2ccccc2Cl)C(=O)N(C)[C@@H](CC(C)C)C(=O)N[C@@H]([C@@H](C)O)C(=O)N(C)CC(=O)N1C` [pd340], the Papp A→B at 180 min came to 1.2 ×10⁻⁶ cm/s. Against the preceding compound, the Papp A→B at 180 min is about 2.2-fold lower.

`CC[C@H](C)[C@H]1C(=O)N[C@@H]([C@@H](C)O)C(=O)N(C)CC(=O)N(C)[C@@H](CC(C)C)C(=O)N[C@H](C(=O)N2CCCCC2)CC(=O)N(C)[C@@H](C)C(=O)N[C@@H](CC(C)C)C(=O)N(C)[C@@H](CC(C)C)C(=O)N(C)[C@@H](C)C(=O)N[C@@H](COc2ccccc2Cl)C(=O)N(C)[C@@H](Cc2ccccc2)C(=O)N1C` [pd341] registered a Papp A→B at 180 min of 1.4 ×10⁻⁶ cm/s.

Compound `CC(C)C[C@H]1C(=O)N[C@@H](COC(C)(C)C)C(=O)N(C)[C@@H](Cc2ccccc2)C(=O)N(C)[C@@H](C(C)C)C(=O)N[C@H](C(=O)N2CCCCC2)CC(=O)N[C@H](C(C)C)C(=O)N(C)[C@@H](Cc2ccccc2)C(=O)N[C@@H](COc2cccc(Cl)c2)C(=O)N(C)[C@@H](C)C(=O)N[C@@H]([C@@H](C)O)C(=O)N(C)CC(=O)N1C` [pd342] yielded a Papp A→B at 180 min of 1.9 ×10⁻⁶ cm/s.

The compound `CC(C)C[C@H]1C(=O)N[C@@H](COC(C)(C)C)C(=O)N(C)[C@@H](Cc2ccccc2)C(=O)N(C)[C@@H](C(C)C)C(=O)N[C@H](C(=O)N2CCCCC2)CC(=O)N[C@H](C)C(=O)N(C)[C@@H](Cc2ccccc2)C(=O)NC(COc2cccc(Cl)c2)C(=O)N(C)[C@@H](C(C)C)C(=O)N[C@@H]([C@@H](C)O)C(=O)N(C)CC(=O)N1C` (stereo partly drawn) [pd343] returned a Papp A→B at 180 min of 2.2 ×10⁻⁶ cm/s.

Turning to `CC[C@H](C)[C@H]1C(=O)N[C@@H]([C@@H](C)O)C(=O)N(C)CC(=O)N(C)[C@@H](CC(C)C)C(=O)N[C@H](C(=O)N2CCCCC2)CC(=O)N(C)[C@@H](C)C(=O)NC(COc2cccc(Cl)c2)C(=O)N(C)[C@@H](CC(C)C)C(=O)N(C)[C@@H](Cc2ccccc2)C(=O)N[C@@H](C)C(=O)N(C)[C@@H](Cc2ccccc2)C(=O)N1C` (stereo partly drawn) [pd344], the Papp A→B at 180 min worked out at 1.3 ×10⁻⁶ cm/s.

As for `CC[C@H](C)[C@H]1C(=O)N[C@@H]([C@@H](C)O)C(=O)N(C)CC(=O)N(C)[C@@H](C)C(=O)N[C@H](C(=O)N2CCCCC2)CC(=O)N(C)[C@@H](C)C(=O)N[C@@H](C(C)C)C(=O)N(C)[C@@H](CC(C)C)C(=O)N(C)[C@@H](Cc2ccccc2)C(=O)NC(COc2cccc(Cl)c2)C(=O)N(C)[C@@H](Cc2ccccc2)C(=O)N1C` (stereo partly drawn) [pd345], the apical-to-basolateral permeability (Papp A→B) at 180 min came out at 1.8 ×10⁻⁶ cm/s.

`CC(C)C[C@H]1C(=O)N[C@@H](COC(C)(C)C)C(=O)N(C)[C@@H](Cc2ccccc2)C(=O)N(C)[C@@H](C(C)C)C(=O)N[C@H](C(=O)N2CCCCC2)CC(=O)N[C@H](C(C)C)C(=O)N(C)[C@@H](Cc2ccccc2)C(=O)N[C@@H](COCc2cncc(F)c2)C(=O)N(C)[C@@H](CC(C)C)C(=O)N[C@@H]([C@@H](C)O)C(=O)N(C)CC(=O)N1C` [pd346] ([dV][NMeF]S(X2)[NMeL]T[Sar][NMeL]S(tBu)[NMeF][NMeV]D-Piperidide; lactam N-11) came in with a Papp A→B at 180 min of 2.4 ×10⁻⁶ cm/s. The Papp A→B at 180 min values of the last two compounds are within 1.5-fold of each other.

Consider `CCCN1CC(=O)N(C)[C@@H](Cc2ccccc2)C(=O)N[C@@H](COCC(F)(F)C(F)F)C(=O)N(C)[C@@H](CC(C)C)C(=O)N[C@@H]([C@@H](C)O)C(=O)N(C)CC(=O)N(C)[C@@H](Cc2ccccc2)C(=O)N(C)[C@@H](CC(C)C)C(=O)N[C@@H](COC(C)(C)C)C(=O)N(C)[C@@H](CC(C)C)C(=O)N[C@H](C(=O)N2CCCCC2)CC1=O` [pd349] ([NPrGly][NMeF]S(X11)[NMeL]T[Sar][NMeF][NMeL]S(tBu)[NMeL]D-Piperidide; lactam N-11), for which the Papp A→B at 180 min was 1.8 ×10⁻⁶ cm/s.

The term Papp A→B denotes how fast a substance crosses the layer from the apical side. Low values mean slow passage, high ones fast passage.

The record behind these values is patent US20200131669A1, “CYCLIC PEPTIDE COMPOUND HAVING HIGH MEMBRANE PERMEABILITY, AND LIBRARY CONTAINING SAME” (Chugai Seiyaku Kabushiki Kaisha, priority 2017, published 2020).
